{"source": "patent US10385022B2", "about": "“3-amino-pyridines as GPBAR1 agonists” (HOFFMANN-LA ROCHE INC., priority 2011, dated 2019)"}
{"molecular_target": "human GPBAR1 receptor (Homo sapiens (Human), UniProt Q8TDU6)", "sequence (Q8TDU6 whole entry)": "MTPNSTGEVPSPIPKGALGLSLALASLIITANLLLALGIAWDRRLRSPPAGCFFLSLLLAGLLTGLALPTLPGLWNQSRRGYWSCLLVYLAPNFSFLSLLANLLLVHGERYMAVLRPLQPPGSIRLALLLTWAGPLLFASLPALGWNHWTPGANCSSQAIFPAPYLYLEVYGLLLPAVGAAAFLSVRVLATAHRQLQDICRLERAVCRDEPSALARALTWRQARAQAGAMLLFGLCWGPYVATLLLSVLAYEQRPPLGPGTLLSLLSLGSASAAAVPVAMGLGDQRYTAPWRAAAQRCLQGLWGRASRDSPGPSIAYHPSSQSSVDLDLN", "experiment": "functional cAMP assay in CHO-dhfr(minus) cells expressing human GPBAR1 receptors", "type": "cell-based", "conditions": "CHO-dhfr(minus) cells expressing human GPBAR1, 30 min at 30° C.", "summary_of_the_method": "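Functional cAMP responses in a human GPBAR1-transfected CHO-dhfr- clone, picked using lithocholic acid as agonist, gave the EC50 values. Parallel testing in untransfected CHO cells served as a specificity control.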", "units": {"EC50": "nM"}}
{"smiles": "CS(=O)(=O)c1cc(C(=O)N(CC(N)=O)c2cnccc2-c2ccccc2F)cc(C(F)(F)F)c1", "note": "[Example 219, N-Carbamoylmethyl-N-[4-(2-fluoro-phenyl)-pyridin-3-yl]-3-methanesulfonyl-5-trifluoromethyl-benzamide]", "EC50": 3030}
{"smiles": "COc1cc(F)c(F)cc1-c1ccncc1N(CCS(C)(=O)=O)C(=O)c1cc(C(F)(F)F)nc(C(F)(F)F)c1", "note": "[Example 158, N-[4-(4,5-Difluoro-2-methoxy-phenyl)-pyridin-3-yl]-N-(2-methanesulfonyl-ethyl)-2,6-bis-trifluoromethyl-isonicotinamide]", "EC50": 210}
{"smiles": "COc1cc(F)ccc1-c1ccncc1N(C)C(=O)c1cc(Cl)nc(C(F)(F)F)c1", "note": "[Example 169, 2-Chloro-N-[4-(4-fluoro-2-methoxy-phenyl)-pyridin-3-yl]-N-methyl-6-trifluoromethyl-isonicotinamide]", "EC50": 26}
{"smiles": "Cc1ccccc1-c1ccncc1N(C)C(=O)c1ccc(C(F)(F)F)c(F)c1", "note": "[Example 94, 3-Fluoro-N-methyl-N-(4-o-tolyl-pyridin-3-yl)-4-trifluoromethyl-benzamide]", "EC50": 2160}
{"smiles": "Cc1ncccc1-c1ccncc1N(C)C(=O)c1cc(C(F)(F)F)cc(C(F)(F)F)c1", "note": "[Example 33, N-Methyl-N-(2-methyl-[3,4′]bipyridinyl-3′-yl)-3,5-bis-trifluoromethyl-benzamide]", "EC50": 349}
{"smiles": "CN(C(=O)c1cc(C(F)(F)F)cc(C(F)(F)F)c1)c1cnccc1-c1cccc(F)c1F", "note": "[Example 40, N-[4-(2,3-Difluoro-phenyl)-pyridin-3-yl]-N-methyl-3,5-bis-trifluoromethyl-benzamide]", "EC50": 107}
{"smiles": "COc1cc(F)ccc1-c1ccncc1N(CC1(C)COC1)C(=O)c1cc(C(F)(F)F)nc(C(F)(F)F)c1", "note": "[Example 207, N-[4-(4-Fluoro-2-methoxy-phenyl)-pyridin-3-yl]-N-(3-methyl-oxctan-3-ylmethyl)-2,6-bis-trifluoromethyl-isonicotinamide]", "EC50": 318}
{"smiles": "CN(C(=O)c1ccc(Br)c(C(F)(F)F)c1)c1cnccc1-c1ccccc1Cl", "note": "[Example 80, 4-Bromo-N-[4-(2-chloro-phenyl)-pyridin-3-yl]-N-methyl-3-trifluoromethyl-benzamide]", "EC50": 299}
{"smiles": "COc1cc(F)ccc1-c1ccncc1N(C)C(=O)c1cc(Br)cc(OC(F)(F)F)c1", "note": "[Example 246, 3-Bromo-N-[4-(4-fluoro-2-methoxy-phenyl)-pyridin-3-yl]-N-methyl-5-trifluoromethoxy-benzamide]", "EC50": 168}
{"smiles": "COc1cc(F)ccc1-c1cc(C)ncc1N(C)C(=O)c1cc(Br)cc(C(F)(F)F)c1", "note": "[Example 303, 3-Bromo-N-[4-(4-fluoro-2-methoxy-phenyl)-6-methyl-pyridin-3-yl]-N-methyl-5-trifluoromethyl-benzamide]", "EC50": 18}
{"smiles": "COc1cc(F)ccc1-c1ccncc1N(C)C(=O)c1cc(C2CC2)cc(S(C)(=O)=O)c1", "note": "[Example 260, 3-Cyclopropyl-N-[4-(4-fluoro-2-methoxy-phenyl)-pyridin-3-yl]-5-methanesulfonyl-N-methyl-benzamide]", "EC50": 153}
{"smiles": "Cc1ccccc1-c1ccncc1N(C)C(=O)c1ccc(Cl)c(Cl)c1", "note": "[Example 10, 3,4-Dichloro-N-methyl-N-(4-o-tolyl-pyridin-3-yl)-benzamide]", "EC50": 238}
{"smiles": "O=C(c1cc(C(F)(F)F)cc(C(F)(F)F)c1)N(CC(F)F)c1cnccc1-c1ccccc1Cl", "note": "[Example 116, N-[4-(2-Chloro-phenyl)-pyridin-3-yl]-N-(2,2-difluoro-ethyl)-3,5-bis-trifluoromethyl-benzamide]", "EC50": 88}
{"smiles": "Cc1ccccc1-c1ccncc1N(CC(F)F)C(=O)c1cc(C(F)(F)F)nc(C(F)(F)F)c1", "note": "[Example 157, N-(2,2-Difluoro-ethyl)-N-(4-o-tolyl-pyridin-3-yl)-2,6-bis-trifluoromethyl-isonicotinamide]", "EC50": 88}
{"smiles": "COCCS(=O)(=O)c1cc(C(=O)N(C)c2cnccc2-c2ccc(F)cc2OC)cc(C(F)(F)F)c1", "note": "[Example 217, N-[4-(4-Fluoro-2-methoxy-phenyl)-pyridin-3-yl]-3-(2-methoxy-ethanesulfonyl)-N-methyl-5-trifluoromethyl-benzamide]", "EC50": 31}
{"smiles": "CS(=O)(=O)c1cc(C(=O)N(CC(F)(F)F)c2cnccc2-c2ccccc2F)cc(C(F)(F)F)c1", "note": "[Example 214, N-[4-(2-Fluoro-phenyl)-pyridin-3-yl]-3-methanesulfonyl-N-(2,2,2-trifluoro-ethyl)-5-trifluoromethyl-benzamide]", "EC50": 265}
{"smiles": "Cc1cc(Cl)ccc1-c1ccncc1N(C)C(=O)c1cc(C(F)(F)F)cc(C(F)(F)F)c1", "note": "[Example 30, N-[4-(4-Chloro-2-methyl-phenyl)-pyridin-3-yl]-N-methyl-3,5-bis-trifluoromethyl-benzamide]", "EC50": 1620}
{"smiles": "CS(=O)(=O)c1cc(C(=O)N(CC#N)c2cnccc2-c2ccccc2Cl)cc(C(F)(F)F)c1", "note": "[Example 286, N-[4-(2-Chloro-phenyl)-pyridin-3-yl]-N-cyanomethyl-3-methanesulfonyl-5-trifluoromethyl-benzamide]", "EC50": 379}
{"smiles": "COc1cc(F)ccc1-c1ccncc1N(C)C(=O)c1cc(C(F)(F)F)cc(S(=O)(=O)CCNS(C)(=O)=O)c1", "note": "[Example 270, N-[4-(4-Fluoro-2-methoxy-phenyl)-pyridin-3-yl]-3-(2-methanesulfonylamino-ethanesulfonyl)-N-methyl-5-trifluoromethyl-benzamide]", "EC50": 133}
{"smiles": "CC(C#N)Oc1cc(F)ccc1-c1ccncc1N(C)C(=O)c1cc(C(F)(F)F)cc(C(F)(F)F)c1", "note": "(centres unmarked) [Example 53, N-{4-[2-(Cyano-methyl-methoxy)-4-fluoro-phenyl]-pyridin-3-yl}-N-methyl-3,5-bis-trifluoromethyl-benzamide]", "EC50": 1100}
{"smiles": "Cc1ccccc1-c1ccncc1N(C)C(=O)c1cc(N2CCCC2=O)cc(C(F)(F)F)c1", "note": "[Example 185, N-Methyl-3-(2-oxo-pyrrolidin-1-yl)-N-(4-o-tolyl-pyridin-3-yl)-5-trifluoromethyl-benzamide]", "EC50": 2400}
{"smiles": "COc1ncccc1-c1ccncc1N(CC(F)(F)F)C(=O)c1cc(C(F)(F)F)cc(S(=O)(=O)N(C)C)c1", "note": "[Example 170, 3-Dimethylsulfamoyl-N-(2-methoxy-[3,4′]bipyridinyl-3′-yl)-N-(2,2,2-trifluoro-ethyl)-5-trifluoromethyl-benzamide]", "EC50": 118}
{"smiles": "Cc1ccccc1-c1ccncc1N(C)C(=O)c1cc(C(F)(F)F)ccc1F", "note": "[Example 4, 2-Fluoro-N-methyl-N-(4-o-tolyl-pyridin-3-yl)-5-trifluoromethyl-benzamide]", "EC50": 247}
{"smiles": "COc1ncccc1-c1ccncc1N(CC(F)F)C(=O)c1cc(C(F)(F)F)nc(C(F)(F)F)c1", "note": "[Example 156, N-(2,2-Difluoro-ethyl)-N-(2-methoxy-[3,4′]bipyridinyl-3′-yl)-2,6-bis-trifluoromethyl-isonicotinamide]", "EC50": 36}
{"smiles": "Cc1ccccc1-c1ccncc1N(C)C(=O)c1cc(F)c(F)c(F)c1", "note": "[Example 104, 3,4,5-Trifluoro-N-methyl-N-(4-o-tolyl-pyridin-3-yl)-benzamide]", "EC50": 1640}
{"smiles": "Cc1cc(-c2ccccc2Cl)c(N(CC(F)(F)F)C(=O)c2cc(C(F)(F)F)cc(S(C)(=O)=O)c2)cn1", "note": "[Example 300, N-[4-(2-Chloro-phenyl)-6-methyl-pyridin-3-yl]-3-methanesulfonyl-N-(2,2,2-trifluoro-ethyl)-5-trifluoromethyl-benzamide]", "EC50": 831}
